Experiment: recombinant barcode read abundance after kanamycin selection (control-corrected) (log10(CPM+1)); higher = more efficient recombination; sequences stand for … in AGTGCAGAGAAAATCGGCCAGTTTTCTCTGCCTGCAGTCCGCATGCCGT…AGATTTATGCAGCGGACTGCCTTTCTCCCAAAGTGATAAACCGGACAGTATCATGGACCGGTTTTCCCGGTAATCCGTATTTGCAAGGTTGGTTTCACT; site = the 11-nt target
In short: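 A vector carrying a T7-inducible recombinase and the last 73 bp of the bridge RNA received, by Gibson cloning, oligos encoding a promoter, target, barcode and the first 104 bridge RNA bases under J23119. The pooled constructs entered E. coli together with a donor plasmid by electroporation. Selection used chloramphenicol/ampicillin/kanamycin with 0.1 mM IPTG, with chloramphenicol/ampicillin LB agar as the control, each in two replicates. Recombination efficiency is the averaged, control-corrected counts-per-million of barcodes at recombinant junctions, reported as log10(CPM+1).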
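Also: IS621 recombinase and bridge RNA in Escherichia coli cells.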

Sequence	recombinant barcode read abundance (log10)
CCTCGATCTTGGGTTCTAACCTGTTGCAT (site TCTCGATCTAT)	0.185
CCTCGGCCTTGGGTTCTAACCTGTTGCAT (site CCACGGCCTAT)	0.0708
CCTCGGCCTTGGGTTCTAACCTGTTGCAT (site CCTCGGCCTAT)	0.862
CCTCGTCCTTGGGTTCTAACCTGTTGCCC (site CCTCGTCCTGG)	0.175
CCTCGTCCTTGGGTTCTAACCTGTTGCCC (site TAGGACTCTAT)	0.00798
CCTCTGCCTTGGGTTCTAACCTGTTGCCT (site CCTCTGCCTAG)	0.855
CCTCTGCCTTGGGTTCTAACCTGTTGCCT (site CGTCTCCCTAG)	0.103
CCTGAATCTTGGGTTCTAACCTGTTGCCT (site CCTGAATCTAG)	0.1
CCTGAATCTTGGGTTCTAACCTGTTGCCT (site CCTGACTCTAG)	0.19
CCTGAATCTTGGGTTCTAACCTGTTGCCT (site CCTGAGTCTAG)	0.279
CCTGAATCTTGGGTTCTAACCTGTTGCCT (site CCTGATTCTAG)	0.073
CCTGAGTCTTGGGTTCTAACCTGTTGCCT (site CCTGAATCTAG)	0.289
CCTGAGTCTTGGGTTCTAACCTGTTGCCT (site CCTGACTCTAG)	0.0437
CCTGAGTCTTGGGTTCTAACCTGTTGCCT (site CCTGAGTCTAG)	1.01
CCTGAGTCTTGGGTTCTAACCTGTTGCCT (site CCTGATTCTAG)	0.0908
CCTGGGCCTTGGGTTCTAACCTGTTGCCT (site CATGGGCCTAG)	0.0944
CCTGGGCCTTGGGTTCTAACCTGTTGCCT (site CCTGGGCCTAG)	0.11
CCTGGGCCTTGGGTTCTAACCTGTTGCCT (site CGTGGGCCTAG)	0.0559
CCTGGGCCTTGGGTTCTAACCTGTTGCCT (site CTTGGGCCTAG)	0
CCTGGGTCTTGGGTTCTAACCTGTTGCTT (site CATGGGTCTAG)	0.0557
CCTGGGTCTTGGGTTCTAACCTGTTGCTT (site CCTGGGTCTAA)	1.08
CCTGTCACTTGGGTTCTAACCTGTTGCCA (site CCTGTCACTTG)	0.474

Sequence	recombinant barcode read abundance (log10)
CCTGTCACTTGGGTTCTAACCTGTTGCCA (site TACCGAGCTCA)	0.11
CCTTGAGCTTGGGTTCTAACCTGTTGCTG (site CCTTGAGCTCA)	0.308
CCTTGAGCTTGGGTTCTAACCTGTTGCTG (site GCTTGAGCTCG)	0.0694
CCTTGTACTTGGGTTCTAACCTGTTGCTT (site AGCATCTCTCG)	0.0216
CCTTGTACTTGGGTTCTAACCTGTTGCTT (site CCTTGTACTAA)	0.131
CCTTTGACTTGGGTTCTAACCTGTTGCTT (site CCTTTGACTAA)	0.0825
CCTTTGACTTGGGTTCTAACCTGTTGCTT (site CCTTTGTCTAA)	0.156
CGAACCGCTTGGGTTCTAACCTGTTGCCT (site CAAACCGCTAG)	0.26
CGAACCGCTTGGGTTCTAACCTGTTGCCT (site CCAACCGCTAG)	0.0439
CGAACCGCTTGGGTTCTAACCTGTTGCCT (site CGAACCGCTAG)	0.974
CGAACCGCTTGGGTTCTAACCTGTTGCCT (site CTAACCGCTAG)	0.0258
CGAACCTCTTGGGTTCTAACCTGTTGCCG (site CGAACCTCTCG)	0.903
CGAACCTCTTGGGTTCTAACCTGTTGCCG (site CGAATCCCTCG)	0.0358
CGAACTACTTGGGTTCTAACCTGTTGCAT (site CGAACTACTAA)	0.215
CGAACTACTTGGGTTCTAACCTGTTGCAT (site CGAACTACTAC)	0.168
CGAACTACTTGGGTTCTAACCTGTTGCAT (site CGAACTACTAG)	0.0576
CGAACTACTTGGGTTCTAACCTGTTGCAT (site CGAACTACTAT)	0.239
CGAACTACTTGGGTTCTAACCTGTTGCTT (site CGAACTACTAA)	0.142
CGAACTACTTGGGTTCTAACCTGTTGCTT (site CGAACTACTAC)	0.205
CGAACTACTTGGGTTCTAACCTGTTGCTT (site CGAACTACTAG)	0.202
CGAACTACTTGGGTTCTAACCTGTTGCTT (site CGAACTACTAT)	0.0384
CGAAGGACTTGGGTTCTAACCTGTTGCTA (site CGAAGGACTTA)	0.973

Sequence	recombinant barcode read abundance (log10)
CGAAGGACTTGGGTTCTAACCTGTTGCTA (site CTAAGGACTTA)	0.231
CGAATCACTTGGGTTCTAACCTGTTGCCT (site CGAATCACTAG)	0.686
CGAATCACTTGGGTTCTAACCTGTTGCCT (site CGAATCCCTAG)	0.062
CGAATCACTTGGGTTCTAACCTGTTGCCT (site CGAATCGCTAG)	0.182
CGAATCACTTGGGTTCTAACCTGTTGCCT (site CGAATCTCTAG)	0.0867
CGAATCCCTTGGGTTCTAACCTGTTGCCG (site CGAACCTCTCG)	0.185
CGAATCCCTTGGGTTCTAACCTGTTGCCG (site CGAATCCCTCG)	0.906
CGACAATCTTGGGTTCTAACCTGTTGCTT (site CGACAATCTAA)	0.0157
CGACAATCTTGGGTTCTAACCTGTTGCTT (site TCTAGGACTTT)	0.27
CGACACACTTGGGTTCTAACCTGTTGCCT (site CGACACACTAG)	0.135
CGACACACTTGGGTTCTAACCTGTTGCCT (site CGCCACACTAG)	0.0974
CGACACACTTGGGTTCTAACCTGTTGCCT (site CGGCACACTAG)	0.0559
CGACACACTTGGGTTCTAACCTGTTGCCT (site CGTCACACTAG)	0.0536
CGACAGGCTTGGGTTCTAACCTGTTGCCT (site AGACTGGCTAG)	0.073
CGACAGGCTTGGGTTCTAACCTGTTGCCT (site CGACAGGCTAG)	0.439
CGACGCACTTGGGTTCTAACCTGTTGCGG (site CGACGCACTCC)	0.584
CGACGCACTTGGGTTCTAACCTGTTGCGG (site TAGTTGTCTAA)	0.0412
CGAGACGCTTGGGTTCTAACCTGTTGCCT (site CCATACGCTAG)	0.109
CGAGACGCTTGGGTTCTAACCTGTTGCCT (site CGAGACGCTAG)	1.87
CGAGAGACTTGGGTTCTAACCTGTTGCTT (site CAAGAGTCTAA)	0.0807
CGAGAGACTTGGGTTCTAACCTGTTGCTT (site CGAGAGACTAA)	0.994
CGAGAGTCTTGGGTTCTAACCTGTTGCGG (site AGAGAGGCTCC)	0.119

Sequence	recombinant barcode read abundance (log10)
CGAGAGTCTTGGGTTCTAACCTGTTGCGG (site CGAGAGTCTCC)	1.31
CGAGATTCTTGGGTTCTAACCTGTTGCCT (site CAAGATTCTAG)	0.331
CGAGATTCTTGGGTTCTAACCTGTTGCCT (site CCAGATTCTAG)	0.271
CGAGATTCTTGGGTTCTAACCTGTTGCCT (site CGAGATTCTAG)	0.755
CGAGATTCTTGGGTTCTAACCTGTTGCCT (site CTAGATTCTAG)	0.332
CGAGCTCCTTGGGTTCTAACCTGTTGCGT (site CGAGCTCCTAA)	0.0215
CGAGCTCCTTGGGTTCTAACCTGTTGCGT (site CGAGCTCCTAC)	2.04
CGAGCTCCTTGGGTTCTAACCTGTTGCGT (site CGAGCTCCTAG)	0.813
CGAGCTCCTTGGGTTCTAACCTGTTGCGT (site CGAGCTCCTAT)	0.766
CGAGGACCTTGGGTTCTAACCTGTTGCCT (site CCAGGACCTAG)	0.729
CGAGGACCTTGGGTTCTAACCTGTTGCCT (site CGAGGACCTAG)	2.3
CGAGGGACTTGGGTTCTAACCTGTTGCCT (site CGAGGGACTAG)	1.81
CGAGGGACTTGGGTTCTAACCTGTTGCCT (site CGAGGGCCTAG)	0.0632
CGAGGGACTTGGGTTCTAACCTGTTGCCT (site CGAGGGGCTAG)	0.807
CGAGGGACTTGGGTTCTAACCTGTTGCCT (site CGAGGGTCTAG)	0.056
CGAGGGCCTTGGGTTCTAACCTGTTGCCT (site CGAGGGACTAG)	0.049
CGAGGGCCTTGGGTTCTAACCTGTTGCCT (site CGAGGGCCTAG)	0.603
CGAGGGCCTTGGGTTCTAACCTGTTGCCT (site CGAGGGGCTAG)	0.0635
CGAGGGCCTTGGGTTCTAACCTGTTGCCT (site CGAGGGTCTAG)	0.345
CGAGTGACTTGGGTTCTAACCTGTTGCAG (site ATTAACTCTAG)	0.0869

From the supplement of paper PMC11208160
